Reference: US7615643B2 (SmithKline Beecham Corporation, priority 2006, dated 2009)
Structures can show the parent of a compound that is named as a salt.

Target: T1, PLK1 (Homo sapiens, UniProt P53350)
T1 construct: PLK kinase domain (amino acids 21-346 preceded by MKKGHHHHHHD); made in house; host or cells: baculovirus infected T. ni cells
Experiment: Assay for inhibition of PLK1 (SPA kinase assay)
Format: biochemical
Conditions: 1 μM ATP, 2 nM PLK1 kinase domain, read-out: PLK1 pIC50 (converted)
Procedure: I. Assay for Inhibition of PLK1
A. Preparation of 6× N-terminal His-tagged PLK Kinase Domain
6× N-terminal His-tagged PLK kinase domain (amino acids 21-346 preceded by MKKGHHHHHHD) SEQ ID: No. 1. was prepared from baculovirus infected T. ni cells under polyhedrin promoter control. All procedures were performed at 4° C. Cells were lysed In 50 mM HEPES, 200 mM NaCl, 50 mM imidazole, 5% glycerol; pH 7.5. The homogenate was centrifuged at 14K rpm in a SLA-1500 rotor for 1 hr and the supernatant filtered through a 1.2 micron filter. The supernatant was loaded onto a Nickel chelating Sepharose (Amersham Pharmacia) column and washed with lysis buffer. Protein was eluted using 20%, 30% and 100% buffer B steps where buffer B was 50 mM HEPES, 200 mM NaCl, 300 mM imidazole, 5% glycerol; pH 7.5. Fractions containing PLK were determined by SDS-PAGE. Fractions containing PLK were diluted five-fold with 50 mM HEPES, 1 mM DTT, 5% glycerol; pH 7.5, then loaded on an SP Sepharose (Amersham Pharmacia) column. After washing the column with 50 mM HEPES, 1 mM DTT, 5% glycerol; pH 7.5, PLK was step eluted with 50 mM HEPES, 1 mM DTT, 500 mM NaCl; 5% glycerol; pH 7.5. PLK was concentrated using a 10 kDa molecular weight cutoff membrane and then loaded onto a Superdex 200 gel filtration (Amersham Pharmacia) column equilibrated in 25 mM HEPES, 1 mM DTT, 500 mM NaCl, 5% glycerol; pH 7.5. Fractions containing PLK were determined by SDS-PAGE. PLK was pooled, aliquoted and stored at −80° C. Samples were quality controlled using mass spectrometry, N-terminal sequencing and amino acid analysis.
B. Enzyme Activity +/− Inhibitors was Determined as Follows:
All measurements were obtained under conditions where signal production increased linearly with time and enzyme. Test compounds were added to white 384-well assay plates (0.1 μL for 10 μL and some 20 μL assays, 1 μL for some 20 μL assays) at variable known concentrations in 100% DMSO. DMSO (1-5% final, as appropriate) and EDTA (65 mM in reaction) were used as controls. Reaction Mix was prepared as follows at 22° C.: • 25 mM HEPES, pH 7.2 • 15 mM MgCl2 • 1 μM ATP • 0.05 μCi/well ^33P-γ ATP (10 Ci/mMol) • 1 μM substrate peptide (Biotin-Ahx-SFNDTLDFD) SEQ ID:No. 2. • 0.15 mg/mL BSA • 1 mM DTT • 2 nM PLK1 kinase domain (added last)
Reaction Mix (10 or 20 μL) was quickly added to each well immediately following addition of enzyme via automated liquid handlers and incubated 1-1.5 h at 22° C. The 20 μL enzymatic reactions were stopped with 50 μL of stop mix (50 mM EDTA, 4.0 mg/mL Streptavidin SPA beads in Standard Dulbecco's PBS (without Mg^2+ and Ca^2+), 50 μM ATP) per well. The 10 μL reactions were stopped with 10 μL of stop mix (50 mM EDTA, 3.0 mg/mL Streptavidin-coupled SPA imaging Beads (“LeadSeeker”) in Standard Dulbecco's PBS (without Mg^2+ and Ca^2+), 50 μM ATP) per well. Plates were sealed with clear plastic seals, spun at 500×g for 1 min or settled overnight, and counted in Packard TopCount for 30 seconds/well (regular SPA) or imaged using a Viewlux imager (LeadSeeker SPA). Signal above background (EDTA controls) was converted to percent Inhibition relative to that obtained in control (DMSO-only) wells.

T1 sequence (P53350 21-346): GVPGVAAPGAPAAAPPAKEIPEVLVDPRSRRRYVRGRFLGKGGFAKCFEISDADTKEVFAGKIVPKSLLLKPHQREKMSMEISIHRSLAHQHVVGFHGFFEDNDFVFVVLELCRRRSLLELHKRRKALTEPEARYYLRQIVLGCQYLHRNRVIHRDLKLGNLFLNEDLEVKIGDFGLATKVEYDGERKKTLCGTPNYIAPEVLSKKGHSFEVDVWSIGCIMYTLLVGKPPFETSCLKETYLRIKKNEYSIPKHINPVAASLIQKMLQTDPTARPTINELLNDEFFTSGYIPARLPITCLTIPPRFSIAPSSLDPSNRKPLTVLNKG

| IC50 [µM] | Compound |
| --- | --- |
| < 0.1 | C[C@@H](Oc1cc(-n2cnc3cc(-c4cnn(C)c4)ccc32)sc1C(N)=O)c1ccc(F)c(OC2CCN(CCF)CC2)c1Cl [Example 35, 3-{[(1R)-1-(2-Chloro-4-fluoro-3-{[1-(2-fluoroethyl)-4-piperidinyl]oxy}phenyl)ethyl]oxy}-5-[5-(1-methyl-1H-pyrazol-4-yl)-1H-benzimidazol-1-yl]-2-thiophenecarboxamide] |
| < 0.1 | C[C@@H](Oc1cc(-n2cnc3cc(-c4cnn(C)c4)ccc32)sc1C(N)=O)c1ccc(F)c(OC2CCN(CCS(C)(=O)=O)CC2)c1Cl [Example 36, 3-({(1R)-1-[2-Chloro-4-fluoro-3-({1-[2-(methylsulfonyl)ethyl]-4-piperidinyl}oxy)phenyl]ethyl}oxy)-5-[5-(1-methyl-1H-pyrazol-4-yl)-1H-benzimidazol-1-yl]-2-thiophenecarboxamide] |
| < 0.1 | C[C@@H](Oc1cc(-n2cnc3cc(-c4cc[n+]([O-])cc4)ccc32)sc1C(N)=O)c1cccc(OC2CCNCC2)c1Cl [Example 37, 3-({(1R)-1-[2-Chloro-3-(4-piperidinyloxy)phenyl]ethyl}oxy)-5-[5-(1-oxido-4-pyridinyl)-1H-benzimidazol-1-yl]-2-thiophenecarboxamide] |
| < 0.1 | C[C@@H](Oc1cc(-n2cnc3cc(-c4cnn(C)c4)ccc32)sc1C(N)=O)c1c(F)ccc(OC2CCN(C)CC2)c1Cl [Example 38, 3-[((1R)-1-{2-Chloro-6-fluoro-3-[(1-methyl-4-piperidinyl)oxy]phenyl}ethyl)oxy]-5-[5-(1-methyl-1H-pyrazol-4-yl)-1H-benzimidazol-1-yl]-2-thiophenecarboxamide] |
| < 0.1 | COc1cc2ncn(-c3cc(O[C@H](C)c4cccc(OCC5CCN(C(=O)OC(C)(C)C)CC5)c4Cl)c(C(N)=O)s3)c2cc1OC [Example 39, 1,1-Dimethylethyl 4-[({3-[(1R)-1-({2-(aminocarbonyl)-5-[5,6-bis(methyloxy)-1H-benzimidazol-1-yl]-3-thienyl}oxy)ethyl]-2-chlorophenyl}oxy)methyl]-1-piperidinecarboxylate] |
| < 0.1 | COc1cc2ncn(-c3cc(O[C@H](C)c4cccc(OCC5CCNCC5)c4Cl)c(C(N)=O)s3)c2cc1OC [Example 40, 5-[5.6-Bis(methyloxy)-1H-benzimidazol-1-yl]-3-[((1R)-1-{2-chloro-3-[(4-piperidinylmethyl)oxy]phenyl}ethyl)oxy]-2-thiophenecarboxamide] |
| < 0.1 | COc1cc2ncn(-c3cc(O[C@H](C)c4cccc(OCC5CCN(C)CC5)c4Cl)c(C(N)=O)s3)c2cc1OC [Example 41, 5-[5,6-Bis(methyloxy)-1H-benzimidazol-1-yl]-3-{[(1R)-1-(2-chloro-3-{[(1-methyl-4-piperidinyl)methyl]oxy}phenyl)ethyl]oxy}-2-thiophenecarboxamide] |
| < 0.1 | COc1cc2ncn(-c3cc(O[C@H](C)c4cccc(OCCN5CCN(C)CC5)c4Cl)c(C(N)=O)s3)c2cc1OC [Example 42, 5-[5,6-Bis(methyloxy)-1H-benzimidazol-1-yl]-3-{[(1R)-1-(2-chloro-3-{[2-(4-methyl-1-piperazinyl)ethyl]oxy}phenyl)ethyl]oxy}-2-thiophenecarboxamide] |
| 0.1 to 1 | C[C@@H](Oc1cc(-n2cnc3cc(-c4cnn(C)c4)ccc32)sc1C(N)=O)c1cccc(OCC2CCN(C(=O)OC(C)(C)C)CC2)c1Cl [Example 43, 1,1-Dimethylethyl 4-[({3-[(1R)-1-({2-(aminocarbonyl)-5-[5-(1-methyl-1H-pyrazol-4-yl)-1H-benzimidazol-1-yl]-3-thienyl}oxy)ethyl]-2-chlorophenyl}oxy)methyl]-1-piperidinecarboxylate] |
| < 0.1 | C[C@@H](Oc1cc(-n2cnc3cc(-c4cnn(C)c4)ccc32)sc1C(N)=O)c1cccc(OCC2CCNCC2)c1Cl [Example 44, 3-[((1R)-1-{2-Chloro-3-[(4-piperidinylmethyl)oxy]phenyl}ethyl)oxy]-5-[5-(1-methyl-1H-pyrazol-4-yl)-1H-benzimidazol-1-yl]-2-thiophenecarboxamide trifluoroacetate] |
| < 0.1 | C[C@@H](Oc1cc(-n2cnc3cc(-c4cnn(C)c4)ccc32)sc1C(N)=O)c1cccc(OCC2CCN(C)CC2)c1Cl [Example 45, 3-{[(1R)-1-(2-Chloro--3-{[(1-methyl-4-piperidinyl)methyl]oxy}phenyl)ethyl]oxy}-5-[5-(1-methyl-1H-pyrazol-4-yl)-1H-benzimidazol-1-yl]-2-thiopnenecarboxamide] |
| < 0.1 | C[C@@H](Oc1cc(-n2cnc3cc(-c4cnn(C)c4)ccc32)sc1C(N)=O)c1cccc(OC2CCN(C(=O)OC(C)(C)C)CC2)c1Cl [Example 46, 1,1-Dimethylethyl 4-({3-[(1R)-1-({2-(aminocarbonyl)-5-[5-(1-methyl-1H-pyrazol-4-yl)-1H-benzimidazol-1-yl]-3-thienyl}oxy)ethyl]-2-chlorophenyl}oxy)-1-piperidinecarboxylate] |
| < 0.1 | C[C@@H](Oc1cc(-n2cnc3cc(-c4cnn(C)c4)ccc32)sc1C(N)=O)c1cccc(OC2CCNCC2)c1Cl [Example 47, 3-({(1R)-1-[2-Chloro-3-(4-piperidinyloxy)phenyl]ethyl}oxy)-5-[5-(1-methyl-1H-pyrazol-4-yl)-1H-benzimidazol-1-yl]-2-thiophenecarboxamide] |
| < 0.1 | C[C@@H](Oc1cc(-n2cnc3cc(-c4cnn(C)c4)ccc32)sc1C(N)=O)c1cccc(OC2CCN(C)CC2)c1Cl [Example 48, 3-[((1R)-1-{2-Chloro-3-[(1-methyl-4-piperidinyl)oxy]phenyl}ethyl)oxy]-5-[5-(1-methyl-1H-pyrazol-4-yl)-1H-benzimidazol-1-yl]-2-thiophenecarboxamide] |
| < 0.1 | Cc1cc(-c2ccc3c(c2)ncn3-c2cc(O[C@H](C)c3cccc(OC4CCNCC4)c3Cl)c(C(N)=O)s2)ccn1 [Example 49, 3-({(1R)-1-[2-Chloro-3-(4-piperidinyloxy)phenyl]ethyl}oxy)-5-[5-(2-methyl-4-pyridinyl)-1H-benzimidazol-1-yl]-2-thiophenecarboxamide] |
| < 0.1 | Cc1cc(-c2ccc3c(c2)ncn3-c2cc(O[C@H](C)c3cccc(OC4CCN(C)CC4)c3Cl)c(C(N)=O)s2)ccn1 [Example 50, 3-[((1R)-1-{2-Chloro-3-[(1-methyl-4-piperidinyl)oxy]phenyl}ethyl)oxy]-5-[5-(2-methyl-4-pyridinyl)-1H-benzimidazol-1-yl]-2-thiophenecarboxamide] |
| < 0.1 | C[C@@H](Oc1cc(-n2cnc3cc(Br)ccc32)sc1C(N)=O)c1cccc(OC2CCN(C)CC2)c1Cl [Example 51, 5-(5-Bromo-1H-benzimidazol-1-yl)-3-[((1R)-1-{2-chloro-3-[(1-methyl-4-piperidinyl)oxy]phenyl}ethyl)oxy]-2-thiophenecarboxamide] |
| < 0.1 | C[C@@H](Oc1cc(-n2cnc3ccc(Cl)cc32)sc1C(N)=O)c1cccc(OC2CCNCC2)c1Cl [Example 52, 5-(6-Chloro-1H-benzimidazol-1-yl)-3-({(1R)-1-[2-chloro-3-(4-piperidinyloxy)phenyl]ethyl}oxy)-2-thiophenecarboxamide] |
| < 0.1 | C[C@@H](Oc1cc(-n2cnc3ccc(Cl)cc32)sc1C(N)=O)c1cccc(OC2CCN(C)CC2)c1Cl [Example 53] |
| < 0.1 | C[C@@H](Oc1cc(-n2cnc3ccc(CS(C)(=O)=O)cc32)sc1C(N)=O)c1cccc(OC2CCNCC2)c1Cl [Example 54, 3-({(1R)-1-[2-Chloro-3-(4-piperidinyloxy)phenyl]ethyl}oxy)-5-{6-[(methylsulfonyl)methyl]-1H-benzimidazol-1-yl}-2-thiophenecarboxamide] |
